Data on one compound can be found in PubChem BioAssay AID2060364.

The structures appear in SMILES notation.

For the test, the system named is JHH-NF1-GBM1 glioma viability, PrestoBlue fluorescence, 120 h. The test can be described thus: growth inhibition of ATRX-deficient high-grade glioma cells – cell-based, JHH-NF1-GBM1, PrestoBlue, dose response (AID 2060364).

In general, IC50 refers to the concentration needed to halve the response being measured. Take `O=[N+]([O-])c1c(NCCO)cc(Sc2nc3ccccc3s2)c2nonc12`: the IC50 is 4.84 µM.
